Data: publication PMC5218480 (PLoS ONE, 2017)

Tested on: MV-4-11 cells
Assay: Gene expression microarray analysis (Affymetrix PrimeView) and GSEA
Assay type: cell-based, human
Parameters: RFU PODN (11730768_x_at) / Fold change /veh PODN (11730768_x_at) / RFU LINC00158 (11744669_a_at) / Fold change /veh LINC00158 (11744669_a_at) / RFU DUSP10 (11751237_a_at) / Fold change /veh DUSP10 (11751237_a_at) / RFU ID3 (11757404_x_at) / Fold change /veh ID3 (11757404_x_at) / RFU PLEKHG5 (11737974_s_at) / Fold change /veh PLEKHG5 (11737974_s_at) / RFU LRRC4B (11730491_at) / Fold change /veh LRRC4B (11730491_at) / RFU GIMAP4 (11747438_a_at) / Fold change /veh GIMAP4 (11747438_a_at) / RFU KRT8 (11758183_x_at) / Fold change /veh KRT8 (11758183_x_at) / RFU CNN1 (11734310_a_at) / Fold change /veh CNN1 (11734310_a_at) / RFU VPS37D (11726825_at) / Fold change /veh VPS37D (11726825_at) / RFU C10orf10 (11716522_x_at) / Fold change /veh C10orf10 (11716522_x_at) / RFU KIR2DL2 /// KIR2DL4 /// KIR2DL5A /// KIR2DL5B /// KIR2DS1 /// KIR2DS2 /// KIR2DS3 /// KIR2DS4 /// KIR3DL3 /// KIR3DL3 /// KIR3DS1 (11738374_at) / Fold change /veh KIR2DL2 /// KIR2DL4 /// KIR2DL5A /// KIR2DL5B /// KIR2DS1 /// KIR2DS2 /// KIR2DS3 /// KIR2DS4 /// KIR3DL3 /// KIR3DL3 /// KIR3DS1 (11738374_at) / RFU C1QL1 (11718748_at) / Fold change /veh C1QL1 (11718748_at) / RFU TMPRSS4 (11747572_a_at) / Fold change /veh TMPRSS4 (11747572_a_at) / RFU HAMP (11756126_x_at) / Fold change /veh HAMP (11756126_x_at) / RFU RNFT2 (11725882_a_at) / Fold change /veh RNFT2 (11725882_a_at) / RFU NR4A2 (11747474_a_at) / Fold change /veh NR4A2 (11747474_a_at) / RFU ABCC12 (11746883_a_at) / Fold change /veh ABCC12 (11746883_a_at) / RFU TMEM136 (11760407_x_at) / Fold change /veh TMEM136 (11760407_x_at) / RFU CLDN22 /// WWC2 (11732394_at) / Fold change /veh CLDN22 /// WWC2 (11732394_at) / RFU HLA-DPB1 (11760878_x_at) / Fold change /veh HLA-DPB1 (11760878_x_at) / RFU SPINT1 (11716480_a_at) / Fold change /veh SPINT1 (11716480_a_at) / RFU GAP43 (11754022_s_at) / Fold change /veh GAP43 (11754022_s_at) / RFU A4GNT (11735810_at) / Fold change /veh A4GNT (11735810_at) / RFU PRB3 (11715151_x_at) / Fold change /veh PRB3 (11715151_x_at) / RFU TUBB4B (11761932_at) / Fold change /veh TUBB4B (11761932_at) / RFU CAPN14 (11732068_a_at) / Fold change /veh CAPN14 (11732068_a_at) / RFU TMCC2 (11721928_a_at) / Fold change /veh TMCC2 (11721928_a_at) / RFU IRGQ (11745062_a_at) / Fold change /veh IRGQ (11745062_a_at) / RFU FAM174B (11720279_a_at) / Fold change /veh FAM174B (11720279_a_at) / RFU TMPRSS4 (11748680_a_at) / Fold change /veh TMPRSS4 (11748680_a_at) / RFU FAM212B (11763350_a_at) / Fold change /veh FAM212B (11763350_a_at) / RFU PLEKHG5 (11743358_a_at) / Fold change /veh PLEKHG5 (11743358_a_at) / RFU ZSCAN30 (11745921_a_at) / Fold change /veh ZSCAN30 (11745921_a_at) / RFU CMKLR1 (11741424_a_at) / Fold change /veh CMKLR1 (11741424_a_at) / RFU LOC101060620 /// MAPK8IP1 (11723275_at) / Fold change /veh LOC101060620 /// MAPK8IP1 (11723275_at) / RFU SPTSSB (11747773_x_at) / Fold change /veh SPTSSB (11747773_x_at) / RFU PRSS12 (11739890_at) / Fold change /veh PRSS12 (11739890_at) / RFU BIN1 (11741810_x_at) / Fold change /veh BIN1 (11741810_x_at) / RFU WNT11 (11732464_a_at) / Fold change /veh WNT11 (11732464_a_at) / RFU C10orf10 (11716521_a_at) / Fold change /veh C10orf10 (11716521_a_at) / RFU C5orf56 (11738089_at) / Fold change /veh C5orf56 (11738089_at) / RFU CYB561 (11721691_x_at) / Fold change /veh CYB561 (11721691_x_at) / RFU ANKRD19P (11752326_a_at) / Fold change /veh ANKRD19P (11752326_a_at) / RFU OR2T12 /// OR2T33 /// OR2T8 (11738714_s_at) / Fold change /veh OR2T12 /// OR2T33 /// OR2T8 (11738714_s_at) / RFU VCAN (11748164_a_at) / Fold change /veh VCAN (11748164_a_at) / RFU JSRP1 (11732532_at) / Fold change /veh JSRP1 (11732532_at) / RFU KRTAP10-11 (11738290_x_at) / Fold change /veh KRTAP10-11 (11738290_x_at) / RFU MYO3A (11730013_a_at) / Fold change /veh MYO3A (11730013_a_at) / RFU EBF3 (11725865_a_at) / Fold change /veh EBF3 (11725865_a_at) / RFU CAMK2N1 (11719241_x_at) / Fold change /veh CAMK2N1 (11719241_x_at) / RFU C5orf56 (11738088_a_at) / Fold change /veh C5orf56 (11738088_a_at) / RFU OLFML3 (11715873_a_at) / Fold change /veh OLFML3 (11715873_a_at) / RFU LOC100653217 /// NTM (11731650_a_at) / Fold change /veh LOC100653217 /// NTM (11731650_a_at) / RFU MAPK11 (11762145_a_at) / Fold change /veh MAPK11 (11762145_a_at) / RFU FIZ1 (11724087_x_at) / Fold change /veh FIZ1 (11724087_x_at) / RFU OASL (11726364_x_at) / Fold change /veh OASL (11726364_x_at) / RFU SOX15 (11748057_x_at) / Fold change /veh SOX15 (11748057_x_at) / RFU CD79A (11719716_a_at) / Fold change /veh CD79A (11719716_a_at) / RFU HIST1H1D (11736915_at) / Fold change /veh HIST1H1D (11736915_at) / RFU CASKIN2 (11723855_a_at) / Fold change /veh CASKIN2 (11723855_a_at) / RFU LOC730098 (11760151_x_at) / Fold change /veh LOC730098 (11760151_x_at) / RFU OR4N2 (11742367_at) / Fold change /veh OR4N2 (11742367_at) / RFU PRRT2 (11749266_a_at) / Fold change /veh PRRT2 (11749266_a_at) / RFU SNX32 (11753110_a_at) / Fold change /veh SNX32 (11753110_a_at) / RFU CDHR5 (11726645_a_at) / Fold change /veh CDHR5 (11726645_a_at) / RFU RCAN1 (11760418_a_at) / Fold change /veh RCAN1 (11760418_a_at) / RFU FAM167A (11723789_a_at) / Fold change /veh FAM167A (11723789_a_at) / RFU FAM26E (11764081_at) / Fold change /veh FAM26E (11764081_at) / RFU ISYNA1 (11749810_s_at) / Fold change /veh ISYNA1 (11749810_s_at) / RFU ACY1 (11761880_at) / Fold change /veh ACY1 (11761880_at) / RFU 11764098_at / Fold change /veh 11764098_at / RFU SAMD14 (11745864_x_at) / Fold change /veh SAMD14 (11745864_x_at) / RFU NPB (11741838_a_at) / Fold change /veh NPB (11741838_a_at) / RFU TMPRSS6 (11731388_a_at) / Fold change /veh TMPRSS6 (11731388_a_at) / RFU KRTAP10-2 (11738614_at) / Fold change /veh KRTAP10-2 (11738614_at) / RFU ARHGAP8 /// PRR5-ARHGAP8 (11727945_x_at) / Fold change /veh ARHGAP8 /// PRR5-ARHGAP8 (11727945_x_at) / RFU KRTAP5-7 /// NADSYN1 (11734609_at) / Fold change /veh KRTAP5-7 /// NADSYN1 (11734609_at) / RFU RASL12 (11751679_a_at) / Fold change /veh RASL12 (11751679_a_at) / RFU CDKN2B (11736163_a_at) / Fold change /veh CDKN2B (11736163_a_at) / RFU PRF1 (11729649_at) / Fold change /veh PRF1 (11729649_at) / RFU, ZNF638 /// ZNF638-IT1 / Fold change vs veh, ZNF638 /// ZNF638-IT1 / RFU, PANK3 / Fold change vs veh, PANK3 / RFU, SH3YL1 / Fold change vs veh, SH3YL1 / RFU, ZEB2 / Fold change vs veh, ZEB2 / RFU, NRIP1 / Fold change vs veh, NRIP1 / RFU, PTTG1IP / Fold change vs veh, PTTG1IP / RFU, CAPN2 / Fold change vs veh, CAPN2 / RFU, MED14 / Fold change vs veh, MED14 / RFU, SNORA58 / Fold change vs veh, SNORA58 / RFU, C1orf63 / Fold change vs veh, C1orf63 / RFU, LRRFIP1 / Fold change vs veh, LRRFIP1 / RFU, NDUFAF7 / Fold change vs veh, NDUFAF7 / RFU, SLC12A2 / Fold change vs veh, SLC12A2 / RFU, IBTK / Fold change vs veh, IBTK / RFU, ESF1 / Fold change vs veh, ESF1 / Fold change vs veh, TMEM50B / RFU, TAOK1 / Fold change vs veh, TAOK1 / RFU, ACBD3 / Fold change vs veh, ACBD3 / RFU, TMA16 / Fold change vs veh, TMA16 / RFU, RWDD3 / Fold change vs veh, RWDD3 / RFU, BCAT1 / Fold change vs veh, BCAT1 / RFU, EDEM3 / Fold change vs veh, EDEM3 / RFU, TMEM33 / Fold change vs veh, TMEM33 / RFU, WDR75 / Fold change vs veh, WDR75 / RFU, AHCTF1 / Fold change vs veh, AHCTF1 / RFU, TFRC / Fold change vs veh, TFRC / RFU, ZDHHC17 / Fold change vs veh, ZDHHC17 / RFU, NOM1 / Fold change vs veh, NOM1 / RFU, ARL8B / Fold change vs veh, ARL8B / RFU, ZBTB11 / Fold change vs veh, ZBTB11 / RFU, TAMM41 / Fold change vs veh, TAMM41 / RFU, KIAA1704 /// LOC100996395 / Fold change vs veh, KIAA1704 /// LOC100996395 / RFU, ING1 / Fold change vs veh, ING1 / RFU, TRMT61B / Fold change vs veh, TRMT61B / RFU, FUBP3 / Fold change vs veh, FUBP3 / RFU, TP53 / Fold change vs veh, TP53 / RFU, TNKS2 / Fold change vs veh, TNKS2 / RFU, ZFP14 / Fold change vs veh, ZFP14 / RFU, ACTR2 / Fold change vs veh, ACTR2 / RFU, PPP3R1 / Fold change vs veh, PPP3R1 / RFU, PIK3R1 / Fold change vs veh, PIK3R1 / RFU, HNRNPA1 / Fold change vs veh, HNRNPA1 / RFU, RNF170 / Fold change vs veh, RNF170 / RFU, ZNF28 / Fold change vs veh, ZNF28 / RFU, RNGTT / Fold change vs veh, RNGTT / RFU, OGT / Fold change vs veh, OGT / RFU, BRD1 / Fold change vs veh, BRD1 / RFU, MARS / Fold change vs veh, MARS / RFU, ZNF655 / Fold change vs veh, ZNF655 / RFU, FAHD1 / Fold change vs veh, FAHD1 / RFU, BDP1 / Fold change vs veh, BDP1 / RFU, LRRCC1 / Fold change vs veh, LRRCC1 / RFU, ARID1A / Fold change vs veh, ARID1A / RFU, ZNF146 / Fold change vs veh, ZNF146 / RFU, ZNF330 / Fold change vs veh, ZNF330 / RFU, GPN3 / Fold change vs veh, GPN3 / RFU, C9orf123 / Fold change vs veh, C9orf123 / RFU, N4BP2L2 / Fold change vs veh, N4BP2L2 / RFU, ARFIP1 / Fold change vs veh, ARFIP1 / RFU, FAM179B / Fold change vs veh, FAM179B / RFU, BCL10 / Fold change vs veh, BCL10 / RFU, UHRF1BP1L / Fold change vs veh, UHRF1BP1L / RFU, BET1 / Fold change vs veh, BET1 / RFU, CNOT2 / Fold change vs veh, CNOT2 / RFU, ZNF268 / Fold change vs veh, ZNF268 / Fold change vs veh, ZNF507 / RFU, DGCR2 / Fold change vs veh, DGCR2 / RFU, WDSUB1 / Fold change vs veh, WDSUB1 / Fold change vs veh, HSP90B1 /// MIR3652 / RFU, ADSS / Fold change vs veh, ADSS / RFU, GK / Fold change vs veh, GK / RFU, ZNF148 / Fold change vs veh, ZNF148 / RFU, TAF9 / Fold change vs veh, TAF9 / RFU, SLC1A5 / Fold change vs veh, SLC1A5 / RFU, SLMO2 / Fold change vs veh, SLMO2 / RFU, ABCC4 / Fold change vs veh, ABCC4 / RFU, LOC101060439 /// RAP1B / Fold change vs veh, LOC101060439 /// RAP1B / RFU, RFX7 / Fold change vs veh, RFX7 / RFU, GTPBP10 / Fold change vs veh, GTPBP10 / RFU, CNEP1R1 / Fold change vs veh, CNEP1R1 / RFU, BIVM-ERCC5 /// ERCC5 / Fold change vs veh, BIVM-ERCC5 /// ERCC5 / RFU, ILF3 / Fold change vs veh, ILF3 / RFU 11762660_at / Fold change /veh 11762660_at / RFU VCAN (11757783_s_at) / Fold change /veh VCAN (11757783_s_at) / RFU DDX43 (11728927_at) / Fold change /veh DDX43 (11728927_at) / RFU KRT8 (11758188_x_at) / Fold change /veh KRT8 (11758188_x_at) / RFU NKD1 (11759106_at) / Fold change /veh NKD1 (11759106_at) / RFU SRD5A1 (11742802_a_at) / Fold change /veh SRD5A1 (11742802_a_at) / RFU TPSAB1 /// TPSB2 (11721975_s_at) / Fold change /veh TPSAB1 /// TPSB2 (11721975_s_at) / RFU GSTM3 (11746129_a_at) / Fold change /veh GSTM3 (11746129_a_at) / RFU IL23R (11737362_x_at) / Fold change /veh IL23R (11737362_x_at) / RFU TMEM51 (11727254_a_at) / Fold change /veh TMEM51 (11727254_a_at) / RFU PIWIL2 (11732686_x_at) / Fold change /veh PIWIL2 (11732686_x_at) / RFU ORM1 (11744905_x_at) / Fold change /veh ORM1 (11744905_x_at) / RFU CCDC152 (11743942_at) / Fold change /veh CCDC152 (11743942_at) / RFU ECM1 (11717891_a_at) / Fold change /veh ECM1 (11717891_a_at) / RFU IL23R (11748794_a_at) / Fold change /veh IL23R (11748794_a_at) / RFU TNFAIP8L3 (11732012_x_at) / Fold change /veh TNFAIP8L3 (11732012_x_at) / RFU MBOAT4 (11741988_at) / Fold change /veh MBOAT4 (11741988_at) / RFU 11764193_at / Fold change /veh 11764193_at / RFU TMEM53 (11763286_at) / Fold change /veh TMEM53 (11763286_at) / RFU MAGEB2 (11727129_at) / Fold change /veh MAGEB2 (11727129_at) / RFU TMEM200A (11744735_a_at) / Fold change /veh TMEM200A (11744735_a_at) / RFU CCDC152 (11751479_a_at) / Fold change /veh CCDC152 (11751479_a_at) / RFU FAM211A (11726209_a_at) / Fold change /veh FAM211A (11726209_a_at) / RFU RGS16 (11746705_a_at) / Fold change /veh RGS16 (11746705_a_at) / RFU VCAN (11755009_s_at) / Fold change /veh VCAN (11755009_s_at) / RFU RHOB (11743442_s_at) / Fold change /veh RHOB (11743442_s_at) / RFU RGS16 (11720943_a_at) / Fold change /veh RGS16 (11720943_a_at) / RFU RGS16 (11720944_at) / Fold change /veh RGS16 (11720944_at) / RFU, VPS4B / Fold change vs veh, VPS4B / RFU, CREB1 / Fold change vs veh, CREB1 / RFU, DNAJC13 / Fold change vs veh, DNAJC13 / RFU, GNAQ / Fold change vs veh, GNAQ / RFU, CDK5R1 / Fold change vs veh, CDK5R1 / RFU, ZRANB3 / Fold change vs veh, ZRANB3 / RFU, CUL4A / Fold change vs veh, CUL4A / RFU, CCNY / Fold change vs veh, CCNY / RFU, UFL1 / Fold change vs veh, UFL1 / RFU, COG3 / Fold change vs veh, COG3 / RFU, DIAPH2 / Fold change vs veh, DIAPH2 / RFU, SKA2 / Fold change vs veh, SKA2 / RFU, AFF3 / Fold change vs veh, AFF3 / RFU, LMF1 / Fold change vs veh, LMF1 / RFU, IPO11 / Fold change vs veh, IPO11 / RFU, DFFB / Fold change vs veh, DFFB / RFU, FOXP1 / Fold change vs veh, FOXP1 / RFU, CARD8 / Fold change vs veh, CARD8 / RFU, STRN3 / Fold change vs veh, STRN3 / RFU, ADK / Fold change vs veh, ADK / RFU, RASSF2 / Fold change vs veh, RASSF2 / RFU, WIPF1 / Fold change vs veh, WIPF1 / RFU, LARP1B / Fold change vs veh, LARP1B / RFU, RASA1 / Fold change vs veh, RASA1 / RFU, RB1 / Fold change vs veh, RB1 / RFU, PPFIA1 / Fold change vs veh, PPFIA1 / RFU, MAT2A / Fold change vs veh, MAT2A / RFU, CCT5 / Fold change vs veh, CCT5 / RFU, WDR92 / Fold change vs veh, WDR92 / RFU, CUX1 / Fold change vs veh, CUX1 / RFU, TTC7A / Fold change vs veh, TTC7A / RFU, TMEM135 / Fold change vs veh, TMEM135 / RFU, DEPTOR / Fold change vs veh, DEPTOR / RFU, CPM / Fold change vs veh, CPM / RFU, DNAJB6 / Fold change vs veh, DNAJB6 / RFU, CACNA2D3 / Fold change vs veh, CACNA2D3 / RFU, DTX4 / Fold change vs veh, DTX4 / RFU, TFCP2 / Fold change vs veh, TFCP2 / RFU, GMCL1 /// GMCL1P1 / Fold change vs veh, GMCL1 /// GMCL1P1 / RFU, AEBP2 / Fold change vs veh, AEBP2 / RFU, SNHG1 /// SNORD22 /// SNORD25 /// SNORD26 /// SNORD27 /// SNORD28 /// SNORD29 /// SNORD31 / Fold change vs veh, SNHG1 /// SNORD22 /// SNORD25 /// SNORD26 /// SNORD27 /// SNORD28 /// SNORD29 /// SNORD31 / Fold change (Aza/veh), C12orf56 (ProbeSet 11735607_a_at) / Fold change (ACY-1035/veh), C12orf56 (ProbeSet 11735607_a_at) / Fold change (Aza/veh), FGFR1OP (ProbeSet 11751329_s_at) / Fold change (ACY-1035/veh), FGFR1OP (ProbeSet 11751329_s_at) / Fold change (Aza/veh), VPS36 (ProbeSet 11739960_a_at) / Fold change (ACY-1035/veh), VPS36 (ProbeSet 11739960_a_at) / RFU SYPL1 (11715823_x_at) / Fold change /veh SYPL1 (11715823_x_at) / RFU IGFBP7 (11715501_s_at) / Fold change /veh IGFBP7 (11715501_s_at) / RFU REEP3 (11722064_at) / Fold change /veh REEP3 (11722064_at) / RFU IGLL1 (11728026_x_at) / Fold change /veh IGLL1 (11728026_x_at): dose or concentration left out as unconfirmed
Settings: MV-4-11 cells, 48 hours

Question: For `Nc1ccc(-c2cccs2)cc1NC(=O)c1ccc2c(c1)cc(C1CC1)n2CCN1CCOCC1` [ACY-1035], which “RFU PRF1 (11729649_at)” value is on record?
Answer: 18.67 RFU
